Literature values in publication PMC6611711 (Molecular cancer therapeutics, 2018).

Tests used:
tumor xenograft = conditions: mice
[1] = tested on: panel of cancer cell lines; conditions: inhibition of choline kinase alpha (CKα)

CN(C)c1cc[n+](CCCCCCCCCCCC[n+]2ccc(N(C)C)cc2)cc1.[Br-].[Br-] [ICL-CCIC-0019]
Tumor xenograft growth (tumor xenograft): inhibited tumor xenograft growth in mice
Growth of a panel of cancer cell lines [1]: suppressed growth of a panel of cancer cell lines
